Results as given in US20230242587A1, “THYCLOTIDES” (The United States of America,as represented by the …, priority 2020, published 2023).

How the values were obtained:
complementary DNA = assay: Melting temperature of PNA-DNA complexes (thermal denaturation); type: binding; conditions: for Tm: PNA bound to complementary DNA; for ΔTm: increase over aegPNA 1a-DNA duplex
From the text: Although the stabilizing effect of tetrahydrofuran for PNA-DNA duplex is slightly lower than that of cyclopentane (3d vs 9 and 2a, Table 2), it strikes a balance between water solubility and binding properties and, therefore the combination of those two backbone modifications could be tailor-made to meet the specific requirements.

[1] = tested on: DNA with a single base mismatch; assay: Discrimination of single base mismatches (Tm of mismatched PNA-DNA duplex); type: binding; conditions: for ΔTm (Tm), TC mismatch: number in brackets / ΔTm (Tm), TG mismatch: number in brackets / ΔTm (Tm), TT mismatch: number in brackets: against fully matched duplex; for ΔTm (Tm), TC mismatch: number before the brackets / ΔTm (Tm), TG mismatch: number before the brackets / ΔTm (Tm), TT mismatch: number before the brackets: PNA-DNA duplex with single base mismatch
From the text: The sequence specificity of thyclotide 3d was examined by determining the change in Tm of a PNA-DNA duplex when a single base mismatch is present. […] The large differences in melting temperature between matched PNA-DNA duplex and mismatch PNA-DNA of thyclotide 3d allows one to control hybridization conditions to exclude the formation of mismatched PNA-DNA by adjust the temperature. Such enhanced single base pair mismatch-discrimination capability could make thyclotide 3d become a powerful tool for the detection of point-mutations and single nucleotide polymorphisms (SNPs).

[2] = CD spectra, conformation of PNA; type: physicochemical
Description: The CD spectra of thyclotides 3a-3d were measured. […] However, in the case of thyclotides 3a-3d, distinct distinctive positive peaks around 220 and 269 nm and negative peaks around 204 and 247 nm were noticed. […] The amplitude of the cotton effects increases as more tetrahydrofuran modifications are introduced.

Substance | Tm (complementary DNA) | ΔTm (complementary DNA) | ΔTm (Tm), TC mismatch: number in brackets [1] | ΔTm (Tm), TG mismatch: number in brackets [1] | ΔTm (Tm), TT mismatch: number in brackets [1] | ΔTm (Tm), TC mismatch: number before the brackets [1] | ΔTm (Tm), TG mismatch: number before the brackets [1] | ΔTm (Tm), TT mismatch: number before the brackets [1] | difference in melting temperature between fully matched duplex and duplex with a single base mismatch (ΔTm), in words ([1]; compared with aegPNA, tcypPNA 2a and mixPNA 9) | CD spectrum / conformation [2]
G#A#T#G#T#G#A#T#A#-AEEA [2a, reference compound] | 93.7 °C | 51.7 °C | −30.6 | −20.6 | −22.8 |  |  |  |  | 
G*A*T*G#T#G#A*T*A*-AEEA [compound 9] | 84.5 °C | 42.5 °C | −27.4 | −20.3 | −19.5 | 57.7 |  |  |  | 
G*A*T*G*T*G*A*T*A*-AEEA [3d] | 77 °C | 35 °C | −26.2 | −21.4 | −18.8 | 50.7 | 55.6 | 58.2 | significantly higher than that of the corresponding aegPNA | 
GAT*GT*GAT*A-AEEA [3c] | 54.9 °C | 12.9 °C |  |  |  |  |  |  |  | 
GAT*GTGAT*A-AEEA [3b] | 49.7 °C | 7.7 °C |  |  |  |  |  |  |  | 
GATGT*GATA-AEEA [3a] | 44.7 °C | 2.7 °C |  |  |  |  |  |  |  | 
GATGTGATA-AEEA [1a, reference compound] | 42.0 °C |  | −19.2 | −16.6 | −13.8 | 22.9 | 25.4 | 28.2 |  | does not show any distinct peaks
